In PubChem BioAssay AID651717 (Broad Institute, 2012):

What follows are molecules tested on mESC Bmi1-luciferase reporter, firefly/renilla ratio, 24 h (assay: compounds raising Bmi1 reporter signal – mouse embryonic stem cells, luciferase, cherry-pick, esBAF inhibitor project, dose response (AID 651717);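 also: luciferase knocked into Bmi1 locus with EF-1a renilla as cell number control; rising ratio signals esBAF inhibition which derepresses Bmi1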).
Molecule `O=c1/c(=C\c2cccnc2)sc2nc3ccccc3n12` has an AC40 of 9.85 µM. `N#Cc1nc(COc2ccccc2)oc1N1CCCCC1` gave an AC40 of 15.6 µM. With `Cc1csc(NC(=O)Nc2ccc(Cl)cc2)n1` the AC40 was 2.68 µM. `O=C1Nc2ccccc2N=C(c2ccc3c(c2)OCO3)C1N(C(=O)c1ccc2ccccc2c1)C1CC1` (stereo not drawn) gave an AC40 of 1.26 µM. `CC(=O)Nc1cnc(-c2cc(C)c(O)c(C)c2)cn1` showed an AC40 of 12 µM. Molecule `O=C(CCc1nnc(CCc2c[nH]c3ccccc23)o1)NC1CCC1` has an AC40 of 4.41 µM. `c1ccc(C2Oc3ccccc3C3CC(c4cccs4)=NN32)cc1` (stereo not drawn) gave an AC40 of 8.04 µM. Work on `COc1cc2ccccc2cc1C(=O)NC1CCC(C)CC1` (stereo not drawn) yielded an AC40 of 8.67 µM. In the case of `COc1ccc(-c2csc(C(C)(O)c3ccccc3)n2)cc1` (stereo not drawn), the AC40 is reported as 14.9 µM. Work on `CCCC(=O)Nc1sc2c(c1C#N)CCCC2` yielded an AC40 of 19 µM. In the case of `C/C(CC(=O)Nc1ccc(OCc2ccccc2)cc1)=N\NC(=O)C(=O)Nc1ccc(C)c(Cl)c1`, the AC40 is reported as 1.03 µM. `COc1ccc(C(O)c2nc(-c3ccc4ccccc4c3)cs2)cc1` (stereo not drawn) showed an AC40 of 13 µM. In the case of `CS(=O)(=O)c1ccc2nc(NC(=O)c3ccccc3Br)sc2c1`, the AC40 is reported as 6.16 µM. Work on `O=C(Nc1ccc(Cl)c(Cl)c1)Nc1ccccc1O` yielded an AC40 of 1.14 µM. In the case of `CO[C@@H]1CN(C)C(=O)c2ccc(NC(=O)Nc3ccc4c(c3)OCO4)cc2OC[C@H](C)NC[C@@H]1C`, the AC40 is reported as 5 µM. `COc1ccc(CNC(=O)Nc2cccc(C)c2)cc1` was tested, and the AC40 was 5.8 µM. `O=C(Nc1cccc(F)c1)c1c(O)c2ccccc2[nH]c1=O` showed an AC40 of 1.29 µM. Work on `COC(=O)N1CCCC(c2cc(C(=O)Nc3ccccc3Cl)no2)C1` (stereo not drawn) yielded an AC40 of 3.3 µM. Molecule `Cc1ccnc(NC(=O)c2ccc3c(c2)C(=O)N(CC(C)C)C3=O)c1` has an AC40 of 2.87 µM. For `Cc1ccccc1C(=O)c1cccn1CC(=O)NCc1cccc(Cl)c1`, the AC40 was 13.6 µM. With `O=C(NN=Cc1ccc2c(c1)CCC2)c1ccccc1O` the AC40 was 2.45 µM. Work on `O=C(O)C=C1CCN(c2ncc(C(F)(F)F)cc2Cl)CC1` yielded an AC40 of 2.07 µM. In the case of `COc1cc(N=Nc2ccc(C(=O)N(C)C)cc2)c(C)cc1N`, the AC40 is reported as 8.86 µM. With `O=c1oc(-c2ccccc2)cc2ccccc12` the AC40 was 3.89 µM. Work on `c1ccc(CCNc2nc3ccccc3s2)cc1` yielded an AC40 of 3.14 µM. `CCc1ccc2cc3c(cc2n1)C(=O)c1ccccc1-3` was tested, and the AC40 was 2.32 µM. `O=C(Nc1ccccc1Cl)NC1CCCCCCC1` was tested, and the AC40 was 5.67 µM. Work on `Clc1ccc(-c2nc3ccc(Cl)cn3c2Cc2ccsc2)cc1` yielded an AC40 of 9.87 µM. `CC(=O)c1ccc(N2CCN(C(=O)c3ccc(Cn4c(=S)[nH]c5ccc(N6CCOCC6)cc5c4=O)cc3)CC2)cc1` was tested, and the AC40 was 24.8 µM. For `CC(C)(C)Nc1nc(Cl)nc(Nc2ccccc2)n1`, the AC40 was 2.09 µM. Molecule `COc1cc(C)ccc1OCc1cc(C(=O)N2CCN(C3CCCCC3)CC2)no1` has an AC40 of 5.3 µM. For `COc1cccc(NC(=O)c2ccccc2Br)c1`, the AC40 was 4.25 µM. In the case of `COc1ccc(-c2cnc(C(O)c3ccccc3)[nH]2)cc1` (stereo not drawn), the AC40 is reported as 1.15 µM. For `CC(=O)Oc1ccc(-c2csc(Nc3ccc(Cl)cn3)n2)cc1`, the AC40 was 2.19 µM. `Cc1ccc(Cl)c2c(N=Nc3ccccc3)c(O)[nH]c12` gave an AC40 of 0.93 µM. With `Cc1ccc(C)c(NC(=O)c2cc(-c3ccccc3O)n[nH]2)c1` the AC40 was 11.5 µM. Molecule `Cc1cc(C)c2nc(N3CCCC(C(=O)NC4CCCC4)C3)sc2c1` (stereo not drawn) has an AC40 of 9.66 µM. `O=C(NC1CCCCC1)c1ccc(-c2ccccc2)cc1` showed an AC40 of 3.77 µM. Work on `Nc1cc(OCc2ccccc2)ccc1OCc1ccccc1` yielded an AC40 of 5.17 µM. With `O=C(Nc1ccccc1)c1cc(C2CCCCN2S(=O)(=O)c2cccs2)on1` (stereo not drawn) the AC40 was 9.04 µM. In the case of `COc1ccc2c(c1OC)C(=O)OC2Nc1nc(-c2cc3cc(Br)ccc3oc2=O)cs1` (stereo not drawn), the AC40 is reported as 1.25 µM. Work on `COc1cccc2sc(NC(=O)c3ccc(Br)s3)nc12` yielded an AC40 of 1.85 µM. `C(=NOCc1ccccc1)c1cccnc1` was tested, and the AC40 was 4.28 µM. In the case of `COc1ccc(-n2nc(C(=O)NCC(=O)N3CCCC3)c3ccccc3c2=O)cc1Cl`, the AC40 is reported as 20.9 µM. Work on `CS(=O)(=O)N1CCc2cc(C(=O)Nc3ccc(Cl)cc3)ccc21` yielded an AC40 of 6.5 µM. `Cc1ccc(C(=O)Nc2ccc(Br)c(C(F)(F)F)c2)cc1` gave an AC40 of 1.73 µM. With `COc1ccc(CNC(=O)c2ccc(-c3ccccc3)cc2)cc1` the AC40 was 6.89 µM. Molecule `Cc1c(C(=O)NCc2cccnc2)sc2nc(-c3ccc(F)cc3)cn12` has an AC40 of 12.2 µM. `Cc1cccc(-c2nc(C#N)c(N3CCCCCC3)o2)c1` showed an AC40 of 16.7 µM. `COc1ccc(-n2nc(C(=O)NCC(=O)N3CCN(c4ccccc4)CC3)c3ccccc3c2=O)c(OC)c1` gave an AC40 of 3.37 µM. In the case of `c1ccc(CCc2nc(-c3cccnc3)no2)cc1`, the AC40 is reported as 1.64 µM. `O=C(NC1CCCC1)c1cc(-c2ccccc2O)on1` showed an AC40 of 1.65 µM. For `Cc1cc(Cl)nc(NC(=O)Nc2cccc(Cl)c2)n1`, the AC40 was 0.66 µM. Work on `Cc1sc2nc(-c3cccnc3)nc(Cl)c2c1-c1ccccc1` yielded an AC40 of 19.5 µM. `COc1ccc2nc3ccccc3[n+]([O-])c2c1` showed an AC40 of 2.1 µM. `CO[C@H]1CN(C)C(=O)c2ccc(NC(=O)Nc3ccc4c(c3)OCO4)cc2OC[C@@H](C)NC[C@H]1C` was tested, and the AC40 was 3.55 µM. `Nc1cc2c(cc1Br)-c1ccccc1C2=NO` was tested, and the AC40 was 9.76 µM. Molecule `CC(=O)Nc1ccc(CNc2nc3cc(-c4ccsc4)sc3c(=O)n2C)cc1` has an AC40 of 6.16 µM. For `CC(C)CN1C(=O)c2ccc(NC(=O)c3cccs3)cc2C1=O`, the AC40 was 3.84 µM. Molecule `Cc1cc(OCc2cc(C(=O)N(C)C(C)c3ccccn3)no2)cc(C)c1Cl` (stereo not drawn) has an AC40 of 14.7 µM. For `O=C(CCc1ccccc1)Nc1ccc(F)cc1F`, the AC40 was 7.22 µM. `CNc1nc(-c2ccc3c(c2)CCN3C(=O)c2ccc(F)cc2)cs1` was tested, and the AC40 was 8.13 µM. Molecule `CC(C)(C)C(=O)N1CCN(c2nc3ccc(Br)cc3s2)CC1` has an AC40 of 1.53 µM. In the case of `N#CCc1ccc(OC(=O)c2cccnc2Cl)cc1`, the AC40 is reported as 15.7 µM. For `C=CCNc1oc(-c2ccc(OC)cc2)nc1C#N`, the AC40 was 3.54 µM. With `Cc1ccccc1-c1nnc(-c2cccc3ccccc23)o1` the AC40 was 0.85 µM. `Cc1cccc(Oc2coc3cc(O)ccc3c2=O)c1` gave an AC40 of 15.7 µM. With `CCC(=O)c1ccc(N2CCC(C)CC2)c(F)c1` the AC40 was 2.04 µM. With `CC(=O)Nc1ccc(-c2nnc(SCC(=O)Nc3ccc4c(c3)oc3ccccc34)n2C)cc1` the AC40 was 6.97 µM. `COc1ccc2[nH]c(=O)c(CNc3cccc(C)c3)cc2c1` was tested, and the AC40 was 12.9 µM. `Cc1cccc(N2C(=O)CC(N(O)c3ccccc3)C2=O)c1` (stereo not drawn) was tested, and the AC40 was 28.4 µM. For `COc1ccccc1NC(=O)CSc1nc2sc3c(c2c(=O)n1-c1ccccc1)CCN(C)C3`, the AC40 was 19.1 µM. `Oc1ccc(-c2nnc(SCc3ccccc3)o2)cc1` showed an AC40 of 7.97 µM. Work on `COc1ccccc1NC(=O)Nc1nc(CC(=O)Nc2ccc(N(C)C)cc2)cs1` yielded an AC40 of 8.78 µM. `CCSc1nnc(NC(=O)c2ccc3nc[nH]c3c2)s1` showed an AC40 of 12.7 µM. `Oc1ccc(-c2nccc(-c3ccccn3)n2)cc1` gave an AC40 of 3.66 µM. In the case of `O=C(COC(=O)c1cccc(S(=O)(=O)N2CCOCC2)c1)Nc1nc(-c2ccccc2Cl)cs1`, the AC40 is reported as 16.2 µM. `COc1ccc(Cc2c(-c3ccccc3)nc3ccc(Br)cn23)c(C)c1` was tested, and the AC40 was 8.9 µM.
